# Assay results reported in publication PMC12888856 (Antimicrobial Agents and Chemotherapy, 2025).
# How the values were obtained:
# Format in all cases: cell-based, Influenza A virus
# A/Malaya/302/1954 (H1N1) = experiment: microbe, parasite or virus in culture; conditions: read-out: EC50
# [1] = system: Oseltamivir-resistant A/Weiss/1943 (NA H275Y)
# [2] = system: Baloxavir-resistant A/Puerto Rico/8/1934 (PA I38T)
Compound,EC50 (A/Malaya/302/1954 (H1N1)) [nM],EC50 [1] [nM],EC50 [2] [nM],Fold shift [1],Fold shift [2]
"O=C1c2c(O)c(=O)ccn2N([C@@H]2c3ccccc3SCc3c2ccc(F)c3F)[C@@H]2COCCN12 [Baloxavir, baloxavir, reference compound]",1.1,0.42,105,–,–
"CCOC(=O)C1=C[C@@H](OC(CC)CC)[C@H](NC(C)=O)[C@@H](N)C1 [Oseltamivir, oseltamivir, reference compound]",1150,> 78400,2810,>74.66,2.89
COC[C@@]1(C)COC[C@@H](COc2ccc(-c3cc(C(N)=O)c(O)nc3C(F)(F)F)cc2)O1 [VNT-101],> 50000,118,–,–,–
